Patent publication US20080254986A1, “Use of piperonyl butoxide to protect plants” (priority 2007, published 2008)

How the values were obtained:
Assay type in all cases: in vivo
Impatiens plants [1] = assay: Wilt index of Impatiens plants after spray application
Description: (§1) Ornamental Plants were purchased from local greenhouse retail outlets and allowed to equilibrate to greenhouse conditions for a minimum of 48 hours before experiments were performed.
(§2) To quantify resistance of plants to wilting, a wilt index was developed. The wilt index uses numerical values of 1-4 (1=no wilt, 4=completely wilted and loss of turgor) to express wilt status. A wilt index was determined for each individual plant assessed daily. When the wilt index was equal to or exceeded 2.5, the plant was considered not salable, and the last day prior to that was considered its last marketable day
In the ornamental plant Impatiens, spray applications were made to evaluate the effects of ABA, PBO or the combination to increase the number of days until the plants wilted. Using a wilt index of 1-4 (1=no wilt, 4=completely wilted and loss of turgor), plants were evaluated following spray application.

cotton [2] = assay: Stomatal conductance of cotton plants after spray application
Description: Cotton was planted and grown at 25° C. under a 16:8 photoperiod for 14 days. After two weeks, plants were moved to the greenhouse (25±2° C., 16:8 photoperiod) for an additional three weeks before treatment.
[…] Transpiration rate of each treatment was calculated as the percentage of that of control at each day to eliminate day-to-day variation caused by changes of environmental condition such as light intensity and temperature.
In cotton, ABA, PBO and the combination were applied to evaluate the effect on stomatol conductance. A decrease in stomatal aperture, reflected in the conductance measures, is an immediate and direct effect of applied ABA (Finkelstein and Rock, 2002).

cotton [3] = assay: Stomatal conductance of cotton plants after drench application; settings: for Reduction of stomatal conductance: drench 50 ppm ABA
Description: Cotton was planted and grown at 25° C. under a 16:8 photoperiod for 14 days. After two weeks, plants were moved to the greenhouse (25±2° C., 16:8 photoperiod) for an additional three weeks before treatment. […] Transpiration rate of each treatment was calculated as the percentage of that of control at each day to eliminate day-to-day variation caused by changes of environmental condition such as light intensity and temperature. In cotton, ABA, PBO and the combination were applied to evaluate the effect on stomatol conductance. A decrease in stomatal aperture, reflected in the conductance measures, is an immediate and direct effect of applied ABA (Finkelstein and Rock, 2002).

Impatiens plants [4] = assay: Marketability (days marketable) of Impatiens plants after sprays
Description: as §1, §2
When the wilt incidence was less than 2.5, the treated plants were considered saleable. The duration of salability was determined for individual plants and the values averaged (Table 4).

Pansy = assay: Marketability of Pansy after sprays
Description: as §1, §2
To determine if the ABA, PBO, or the combination of ABA and PBO is effective at increasing marketable life of other ornamental plants, Pansy plants were used. All applications were made by spray to fully hydrated plants. Solutions were applied as soon as possible after mixing. All spray applications contained Tween 20 at 0.05% (v/v). Plants were held in a greenhouse without further irrigation.

Impatiens plants [5] = assay: Marketability of Impatiens plants, ABA drench and PBO foliar spray
Description: as §1, §2
To better determine the effectiveness of PBO on ABA effectiveness, a spatial separation in application methodology was used. That is, water or ABA were drench applied at 10% of the pot volume, followed by a spray application to the foliage of Tween 20 (0.05%) in water, either alone, or in combination with 1000 ppm PBO.
In Table 6, the rate of ABA in the drench application is varied in order to determine the effect of PBO sprays on ABA rate.

Viola (Violet) = assay: Marketability of Viola (Violet) after sprays
Description: as §1, §2
To determine if the combination of ABA and PBO is effective at increasing marketable life of other ornamental plants, Viola plants (Violet) were used. All applications were made by spray to fully hydrated plants. Spray solutions were applied as soon as possible after mixing. All spray applications contained Tween 20 at 0.05% (v/v).

[6] = spray 50 ppm, 0 hours after application
[7] = spray 50 ppm, 5 hours after application
[8] = spray 50 ppm, 24 hours after application
[9] = spray 50 ppm, 48 hours after application
[10] = spray 50 ppm, 72 hours after application
[11] = spray 50 ppm, 96 hours after application
[12] = drench 50 ppm, 0 hours after application
[13] = drench 50 ppm, 5 hours after application
[14] = drench 50 ppm, 24 hours after application
[15] = drench 50 ppm, 48 hours after application
[16] = drench 50 ppm, 72 hours after application
[17] = drench 50 ppm, 96 hours after application
[18] = spray PBO 1000 ppm + Tween 20 0.05%

S-(+)-abscisic acid [ABA]
Wilt Index (1 = no wilt; 4 = plants wilted, complete loss of turgor) (Impatiens plants [1]; spray ABA 200 ppm + Tween 20 0.05%, 0 days after spray): 1 | Wilt Index (1 = no wilt; 4 = plants wilted, complete loss of turgor) (Impatiens plants [1]; spray ABA 200 ppm + Tween 20 0.05%, 4 days after spray): 1.00 | Wilt Index (1 = no wilt; 4 = plants wilted, complete loss of turgor) (Impatiens plants [1]; spray ABA 200 ppm + Tween 20 0.05%, 5 days after spray): 1.27 | Wilt Index (1 = no wilt; 4 = plants wilted, complete loss of turgor) (Impatiens plants [1]; spray ABA 200 ppm + Tween 20 0.05%, 6 days after spray): 1.66 | Wilt Index (1 = no wilt; 4 = plants wilted, complete loss of turgor) (Impatiens plants [1]; spray ABA 200 ppm + Tween 20 0.05%, 7 days after spray): 2.31 | Decrease in stomatal conductance (cotton [2]; ABA spray, 5 hours after spray application): 58.9% | Percent Conductance (stomatal conductance, control = 100%) (cotton [2]; [6]): 101.1% | Percent Conductance (stomatal conductance, control = 100%) (cotton [2]; [7]): 41.1% | Percent Conductance (stomatal conductance, control = 100%) (cotton [2]; [8]): 86.2% | Percent Conductance (stomatal conductance, control = 100%) (cotton [2]; [9]): 91.9% | Percent Conductance (stomatal conductance, control = 100%) (cotton [2]; [10]): 102.0% | Percent Conductance (stomatal conductance, control = 100%) (cotton [2]; [11]): 100.6% | Reduction of stomatal conductance (cotton [3]; 5 hours post drench): 44% | Reduction of stomatal conductance (cotton [3]; 24 hours post drench): 22.5% | Percent Conductance (stomatal conductance, control = 100%) (cotton [3]; [12]): 100.3% | Percent Conductance (stomatal conductance, control = 100%) (cotton [3]; [13]): 56.0% | Percent Conductance (stomatal conductance, control = 100%) (cotton [3]; [14]): 77.5% | Percent Conductance (stomatal conductance, control = 100%) (cotton [3]; [15]): 85.8% | Percent Conductance (stomatal conductance, control = 100%) (cotton [3]; [16]): 83.9% | Percent Conductance (stomatal conductance, control = 100%) (cotton [3]; [17]): 104.3% | Increase in shelf life without watering (Impatiens plants [4]; ABA spray 200 ppm versus control spray): almost two day increase | Days Marketable (Wilt index less than 2.5) (Impatiens plants [4]; spray ABA 200 ppm + Tween 20 0.05%): 7.5 days | Days Marketable (Wilt index less than 2.5) (Pansy; spray ABA 7.5 mg + Tween 20 0.05%): 7.6 days | Days Marketable (Wilt index less than 2.5) (Impatiens plants [5]; Table 5, drench ABA 200 ppm, spray Tween 20 0.05%): 7.69 days | Days Marketable (Wilt index less than 2.5) (Impatiens plants [5]; Table 6, drench ABA 50 ppm, spray Tween 20 0.05%): 6.5 days | Days Marketable (Wilt index less than 2.5) (Impatiens plants [5]; Table 6, drench ABA 200 ppm, spray Tween 20 0.05%): 8.1 days | Days Marketable (Wilt index less than 2.5) (Viola (Violet); spray ABA 100 ppm + Tween 20 0.05%): 8.0 days

CCCCOCCOCCOCc1cc2c(cc1CCC)OCO2 [PBO, piperonyl butoxide]
Wilt Index (1 = no wilt; 4 = plants wilted, complete loss of turgor) (Impatiens plants [1]; spray PBO 1000 ppm + Tween 20 0.05%, 0 days after spray): 1 | Wilt Index (1 = no wilt; 4 = plants wilted, complete loss of turgor) (Impatiens plants [1]; spray PBO 1000 ppm + Tween 20 0.05%, 4 days after spray): 1.13 | Wilt Index (1 = no wilt; 4 = plants wilted, complete loss of turgor) (Impatiens plants [1]; spray PBO 1000 ppm + Tween 20 0.05%, 5 days after spray): 1.34 | Wilt Index (1 = no wilt; 4 = plants wilted, complete loss of turgor) (Impatiens plants [1]; spray PBO 1000 ppm + Tween 20 0.05%, 6 days after spray): 1.83 | Wilt Index (1 = no wilt; 4 = plants wilted, complete loss of turgor) (Impatiens plants [1]; spray PBO 1000 ppm + Tween 20 0.05%, 7 days after spray): 2.25 | Increase of the effect of ABA on stomatal conductance by addition of PBO (cotton [2]; PBO 500 ppm added to ABA spray, 5 hours): 27% | Percent Conductance (stomatal conductance, control = 100%) (cotton [2]; [6]): 101.8% | Percent Conductance (stomatal conductance, control = 100%) (cotton [2]; [7]): 89.6% | Percent Conductance (stomatal conductance, control = 100%) (cotton [2]; [8]): 100.7% | Percent Conductance (stomatal conductance, control = 100%) (cotton [2]; [9]): 100.2% | Percent Conductance (stomatal conductance, control = 100%) (cotton [2]; [10]): 90.2% | Percent Conductance (stomatal conductance, control = 100%) (cotton [2]; [11]): 96.2% | Percent Conductance (stomatal conductance, control = 100%) (cotton [2]; spray 500 ppm, 0 hours after application): 103.0% | Percent Conductance (stomatal conductance, control = 100%) (cotton [2]; spray 500 ppm, 5 hours after application): 67.2% | Percent Conductance (stomatal conductance, control = 100%) (cotton [2]; spray 500 ppm, 24 hours after application): 68.5% | Percent Conductance (stomatal conductance, control = 100%) (cotton [2]; spray 500 ppm, 48 hours after application): 81.5% | Percent Conductance (stomatal conductance, control = 100%) (cotton [2]; spray 500 ppm, 72 hours after application): 84.6% | Percent Conductance (stomatal conductance, control = 100%) (cotton [2]; spray 500 ppm, 96 hours after application): 95.2% | Percent Conductance (stomatal conductance, control = 100%) (cotton [3]; [12]): 100.8% | Percent Conductance (stomatal conductance, control = 100%) (cotton [3]; [13]): 84.0% | Percent Conductance (stomatal conductance, control = 100%) (cotton [3]; [14]): 95.1% | Percent Conductance (stomatal conductance, control = 100%) (cotton [3]; [15]): 97.7% | Percent Conductance (stomatal conductance, control = 100%) (cotton [3]; [16]): 91.6% | Percent Conductance (stomatal conductance, control = 100%) (cotton [3]; [17]): 101.5% | Percent Conductance (stomatal conductance, control = 100%) (cotton [3]; drench 500 ppm, 0 hours after application): 100.4% | Percent Conductance (stomatal conductance, control = 100%) (cotton [3]; drench 500 ppm, 5 hours after application): 86.8% | Percent Conductance (stomatal conductance, control = 100%) (cotton [3]; drench 500 ppm, 24 hours after application): 89.8% | Percent Conductance (stomatal conductance, control = 100%) (cotton [3]; drench 500 ppm, 48 hours after application): 96.9% | Percent Conductance (stomatal conductance, control = 100%) (cotton [3]; drench 500 ppm, 72 hours after application): 100.2% | Percent Conductance (stomatal conductance, control = 100%) (cotton [3]; drench 500 ppm, 96 hours after application): 93.1% | Days Marketable (Wilt index less than 2.5) (Impatiens plants [4]; [18]): 6.6 days | Days Marketable (Wilt index less than 2.5) (Pansy; spray PBO 1.5 mg + Tween 20 0.05%): 5.8 days | Days Marketable (Wilt index less than 2.5) (Impatiens plants [5]; Table 5, drench water, spray PBO 1000 ppm + Tween 20 0.05%): 6.69 days | Days Marketable (Wilt index less than 2.5) (Impatiens plants [5]; Table 6, drench water, spray PBO 1000 ppm + Tween 20 0.05%): 6.5 days | Days Marketable (Wilt index less than 2.5) (Viola (Violet); [18]): 5.9 days
